Test results taken from patent US4759928A, “Antibiotic: Treponemycin” (Washington State University Research Foundation, priority 1986, dated 1988).

Tests used:
dopamine β-hydroxylase = conditions: cited from earlier work
[1] = cited from earlier work
[2] = system: Streptomyces sp. isolates 275 and 124; test: Streptomycin susceptibility; assay type: cell-based, Streptomyces albovinaceous
Excerpt: Streptomyces sp. isolates 124 and 275 were characterized by the methods developed by collaborators of the International Streptomyces Project for the identification of Streptomyces species (1, 7, 8, 10-14). Identification was made by using Nonomura's classification key (7) and Bergey's Manual of Determinative Bacteriology (1). The color of mature aerial mycelia was observed on OMA, potato dextrose agar, and Pridham and Gottlieb's basal agar with glucose (8). The colony color on the reverse side of the plate was observed on potato dextrose agar, OMA, and tyrosine-casein-nitrate agar. Color standards and color nomenclature were used to describe the colony color. The production of melanoid pigments was examined on peptone-iron agar, tyrosine agar, and tryptone-yeast extract broth. Carbon utilization by the organism was studied on Pridham and Gottlieb's basal agar with various carbon sources added (8).

[3] = system: Fusobacterium necrophorum; conditions: cited from earlier work
[4] = system: Bacillus subtilis and Saccharomyces cerevisiae; test: antimicrobial activity, paper disk agar diffusion bioassay; assay type: cell-based

[C-]#[N+]C(C(=O)OCC(O)C(O)C(O)C(O)COC(=O)C([N+]#[C-])=C(C)C)=C(C)C (stereo not drawn) [A32390A]
inhibitor of dopamine β-hydroxylase (dopamine β-hydroxylase): inhibitor | antimicrobial [1]: antimicrobial compound

[H]/N=C(/N)N[C@H]1[C@H](O)[C@@H](O)[C@H](O[C@@H]2O[C@@H](C)[C@](O)(C=O)[C@H]2O[C@@H]2O[C@@H](CO)[C@H](O)[C@@H](O)[C@@H]2NC)[C@@H](N/C(N)=N\[H])[C@@H]1O [Streptomycin]
Streptomycin susceptibility ([2]; 10 μg/ml): not | Streptomycin susceptibility ([2]; 50 μg/ml): Inhibited

CC[C@H]1OC(=O)[C@H](C)[C@@H](O[C@H]2C[C@@](C)(OC)[C@@H](O)[C@H](C)O2)[C@H](C)[C@@H](O[C@@H]2O[C@H](C)C[C@H](N(C)C)[C@H]2O)[C@](C)(O)C[C@@H](C)C(=O)[C@H](C)[C@@H](O)[C@]1(C)O [erythromycin]
resistance of Fusobacterium necrophorum [3]: high levels of resistance

C[C@@H]1C[C@H](C)C[C@H](C)[C@@H](O)CC(=O)O[C@H]([C@@H]2CCC[C@H]2C(=O)O)C/C=C/C=C(/CN)[C@H](O)[C@@H](C)C1 [primary amine]
antimicrobial activity [4]: no antimicrobial activity
